The target of series [1] is T1, human Y1 receptor (Homo sapiens, UniProt P25929).
T1 construct: expressed in transfected cells; host or cells: human embryonic kidney 293 cells, e.g. 293-hY1-5 (ATCC CRL-12121)
T1 sequence (P25929 1-384): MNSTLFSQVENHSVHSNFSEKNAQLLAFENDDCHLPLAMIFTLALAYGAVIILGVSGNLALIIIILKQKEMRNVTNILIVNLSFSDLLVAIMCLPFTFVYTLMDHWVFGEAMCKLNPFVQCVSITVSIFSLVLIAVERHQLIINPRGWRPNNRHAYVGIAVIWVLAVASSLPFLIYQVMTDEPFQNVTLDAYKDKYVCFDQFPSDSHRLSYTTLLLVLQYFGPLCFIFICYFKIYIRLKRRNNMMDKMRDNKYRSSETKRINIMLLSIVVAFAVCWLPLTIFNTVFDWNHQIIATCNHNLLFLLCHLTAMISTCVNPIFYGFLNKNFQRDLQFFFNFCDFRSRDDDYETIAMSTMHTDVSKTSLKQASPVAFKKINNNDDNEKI
Briefly: Radioligand binding to membranes, cloned human Y1 receptor. The note with it: hNPY-1 (one cell for Y1, Y2, Y4), read-out: Ki, nM hNPY-1,2,4.
Protocol: (§1) Binding of the compounds of the present invention to human Y1, Y2, Y4, and Y5 receptors was evaluated using stably transfected 293 or LM(tk-) cells as described above.
(§2) Membranes were harvested from COS-7 cells 48 hours after transient transfection. Adherent cells were washed twice in ice-cold phosphate buffered saline (138 mM NaCl, 8.1 mM Na2HPO4, 2.5 mM KCl, 1.2 mM KH2PO4, 0.9 mM CaCl2, 0.5 mM MgCl2, pH 7.4) and lysed by sonication in ice-cold sonication buffer (20 mM Tris-HCl, 5 mM EDTA, pH 7.7). Large particles and debris were cleared by low speed centrifugation (200×g, 5 min, 4° C.). Membranes were collected from the supernatant fraction by centrifugation (32,000×g, 18 min, 4° C.), washed with ice-cold hypotonic buffer, and collected again by centrifugation (32,000×g, 18 min, 4° C.). The final membrane pellet was resuspended by sonication into a small volume of ice-cold binding buffer (˜1 ml for every 5 plates: 10 mM NaCl, 20 mM HEPES, 0.22 mM KH2PO4, 1.26 mM CaCl2, 0.81 mM MgSO4, pH 7.4). Protein concentration was measured by the Bradford method (Bradford, 1976) using Bio-Rad Reagent, with bovine serum albumin as a standard. Membranes were held on ice for up to one hour and used fresh, or flash-frozen and stored in liquid nitrogen.
(§3) Membranes were prepared similarly from 293, LM(tk-), and NIH-3T3 cells.
(§4) Membrane suspensions were diluted in binding buffer supplemented with 0.1% bovine serum albumin to yield an optimal membrane protein concentration so that ^125I-PYY (or alternative radioligand such as ^125I-NPY, ^125I-NYY3-36, or ^125I-[Leu^31Pro^34]PYY) bound by membranes in the assay was less than 10% of ^125I-PYY (or alternative radioligand) delivered to the sample (100,000 dpm/sample=0.08 nM for competition binding assays). ^125I-PYY (or alternative radioligand) and peptide competitors were also diluted to desired concentrations in supplemented binding buffer. Individual samples were then prepared in 96-well polypropylene microtiter plates by mixing ^125I-PYY (25 μL) (or alternative radioligand), competing peptides or supplemented binding buffer (25 μL), and finally, membrane suspensions (200 μL). Samples were incubated in a 30° C. water bath with constant shaking for 120 min. Incubations were terminated by filtration over Whatman GF/C filters (pre-coated with 1% polyethyleneimine and air-dried before use), followed by washing with 5 mL of ice-cold binding buffer. Filter-trapped membranes were impregnated with MeltiLex solid scintillant (Wallac, Turku, Finland) and counted for ^125I in a Wallac Beta-Plate Reader. Alternatively, incubations were carried out in GF/C filter plates (pre-coated with 1% polyethyleneimine and air-dried before use), followed by vacuum filtration and three washes of 300 μL of ice-cold binding buffer. 50 μL of UltimaGold (Packard) scintillant were added and counted for ^125I, in a Wallac MicroBeta Trilux. Non-specific binding was defined by 300 nM human NPY for all receptors except the Y4 subtypes; 100 nM human PP was used for the human Y4 and 100 nM rat PP for the rat Y4.

The target of series [2] is T2, human Y4 receptor (Homo sapiens, UniProt P50391).
T2 construct: expressed in transfected cells; host or cells: mouse fibroblast LM(tk-) cells, e.g. L-hY4-3 (ATCC CRL-11779)
Briefly: Radioligand binding to membranes, cloned human Y4 receptor. The note with it: hNPY-4 (one cell for Y1, Y2, Y4), read-out: Ki, nM hNPY-1,2,4.
Protocol: as §1, §2, §3, §4

Series [3] deals with T3, human Y2 receptor (Homo sapiens, UniProt P49146).
T3 sequence (P49146 1-381): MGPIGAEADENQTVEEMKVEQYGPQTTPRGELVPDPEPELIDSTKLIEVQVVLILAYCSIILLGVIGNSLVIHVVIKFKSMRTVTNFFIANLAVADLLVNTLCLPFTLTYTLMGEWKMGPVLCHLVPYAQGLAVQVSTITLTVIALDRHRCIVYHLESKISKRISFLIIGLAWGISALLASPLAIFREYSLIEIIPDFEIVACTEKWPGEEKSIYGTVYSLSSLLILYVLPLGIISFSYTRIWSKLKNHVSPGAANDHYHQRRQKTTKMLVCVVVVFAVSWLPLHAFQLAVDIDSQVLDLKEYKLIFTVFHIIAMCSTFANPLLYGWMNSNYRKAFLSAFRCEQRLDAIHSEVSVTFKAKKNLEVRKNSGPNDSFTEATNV
Put plainly: Radioligand binding to membranes, cloned human Y2 receptor.
Protocol: as §1, §2, §3, §4

Series [4] deals with T4, human Y5 receptor (Homo sapiens, UniProt Q15761).
T4 construct: expressed in transfected cells; host or cells: mouse fibroblast LM(tk-) cells, e.g. L-hY5-7 (ATCC CRL-11995)
T4 sequence (Q15761 1-445): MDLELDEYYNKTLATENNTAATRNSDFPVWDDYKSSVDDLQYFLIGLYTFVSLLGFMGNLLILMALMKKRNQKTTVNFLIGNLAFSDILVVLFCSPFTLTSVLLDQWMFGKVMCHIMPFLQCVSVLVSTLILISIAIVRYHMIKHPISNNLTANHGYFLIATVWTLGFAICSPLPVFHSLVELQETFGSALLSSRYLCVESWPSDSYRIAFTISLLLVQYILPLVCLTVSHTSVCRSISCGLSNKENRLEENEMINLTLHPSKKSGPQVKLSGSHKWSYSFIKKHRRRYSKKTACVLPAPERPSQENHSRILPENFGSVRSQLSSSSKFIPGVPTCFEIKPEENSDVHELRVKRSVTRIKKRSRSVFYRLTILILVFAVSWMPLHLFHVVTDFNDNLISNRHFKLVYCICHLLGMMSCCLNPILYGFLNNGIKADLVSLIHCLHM
Briefly: Radioligand binding to membranes, cloned human Y5 receptor. The note with it: read-out: Ki, nM hNPY-5.
Protocol: as §1, §2, §3, §4

Where a name gives a salt, the structure may show the parent alone. Read-outs that look alike come from different tables or passages of the source.

T2 sequence (P50391 whole entry): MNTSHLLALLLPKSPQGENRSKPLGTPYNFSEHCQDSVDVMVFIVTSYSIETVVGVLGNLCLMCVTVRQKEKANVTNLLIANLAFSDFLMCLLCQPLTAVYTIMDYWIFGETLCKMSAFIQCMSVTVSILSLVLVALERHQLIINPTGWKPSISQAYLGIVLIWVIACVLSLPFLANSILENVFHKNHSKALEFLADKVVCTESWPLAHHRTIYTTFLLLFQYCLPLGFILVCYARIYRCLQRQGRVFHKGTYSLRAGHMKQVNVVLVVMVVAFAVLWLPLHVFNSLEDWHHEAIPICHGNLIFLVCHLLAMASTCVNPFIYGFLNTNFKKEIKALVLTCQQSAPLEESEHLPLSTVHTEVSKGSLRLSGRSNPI

As for `Cc1noc(C)c1S(=O)(=O)N[C@H]1CC[C@H](CNc2nc(-c3ccccn3)cs2)CC1` (as salt: chloride) [Example 85, trans-2-(4-(3,5-Dimethyl-4-isoxazolyl)sulfonylamino)-cyclohexylmethylamino-4-(2-pyridyl)thiazole dihydrogen chloride], the melting point (as a rule, the temperature, or range, at which the solid turns liquid) lay in the range of 98 to 101 °C.

In turn, `COc1ccc(C)cc1S(=O)(=O)NCCCCCNc1nc(-c2ccncc2)cs1` (as salt: chloride) [Example 75, 2-(5-(2-Methoxy-5-methyl)phenylsulfonylamino)pentylamino-4-(4-pyridyl)thiazole hydrogen chloride] had a melting point of 116 to 117 °C.

The compound `Cc1noc(C)c1S(=O)(=O)NCCCCCNc1nc(-c2ccncc2)cs1` (as salt: chloride) [Example 74, 2-(5-(3,5-Dimethylisoxazol-4-yl)sulfonylamino)pentylamino-4-(4-pyridyl)thiazole hydrogen chloride] displayed a melting point of 108 to 109 °C.

Regarding `COc1ccc(S(=O)(=O)NCCCCCNc2nc(-c3ccccn3)cs2)cc1` (as salt: chloride) [Example 62, 2-(5-(4-Methoxyphenyl)sulfonylamino)pentylamino-4-(2-pyridyl)thiazole hydrogen chloride], the melting point lay in the range of 54 to 57 °C.

Consider `COc1ccc(C)cc1S(=O)(=O)N[C@H]1CC[C@H](CNc2nc(-c3ccccn3)cs2)CC1` (as salt: chloride) [Example 83, trans-2-(4-(2-Methoxy-5-methylphenyl)sulfonylamino)-cyclohexylmethylamino-4-(2-pyridyl)thiazole dihydrogen chloride], for which the melting point is 111 to 113 °C.

In the case of `O=S(=O)(NCCCCCNc1nc(-c2ccncc2)cs1)c1ccccc1F` (as salt: chloride) [Example 73, 2-(5-(2-Fluoro)phenylsulfonylamino)pentylamino-4-(4-pyridyl)thiazole hydrogen chloride], the melting point lay within 97 to 98 °C.

Compound `O=S(=O)(NCCCCCNc1nc(-c2cccnc2)cs1)c1ccccc1F` (as salt: chloride) [Example 70, 2-(5-(2-Fluorophenyl)sulfonylamino)pentylamino-4-(3-pyridyl)thiazole hydrogen chloride] displayed a melting point of 84 to 85 °C.

Regarding `COc1ccc(C)cc1S(=O)(=O)NCCCCCNc1nc(-c2ccccn2)cs1` (as salt: chloride) [Example 65, 2-(5-(2-Methoxy-5-methylphenyl)sulfonylamino)pentylamino-4-(2-pyridyl)thiazole hydrogen chloride], the melting point is 155 to 156 °C.

As for `O=S(=O)(Cc1ccccc1)NCCCCCNc1nc(-c2ccccn2)cs1` (as salt: chloride) [Example 66, 2-(5-(Benzylsulfonylamino)pentylamino-4-(2-pyridyl)thiazole hydrogen chloride], the melting point lay in the range of 62 to 64 °C.

Compound `O=S(=O)(NCCCCCNc1nc(-c2ccccn2)cs1)C(F)(F)F` (as salt: chloride) [Example 68, 2-(5-(Trifluoromethylsulfonylamino)pentyl)amino-4-(2-pyridyl)thiazole hydrogen chloride] showed a melting point of 63 to 65 °C.

On to `COc1ccc(C)cc1S(=O)(=O)NCCCCCNc1nc(-c2cc(-c3ccccc3)on2)cs1` [Example 78], for which the Ki (in general, a measure of affinity in units of concentration, obtained from inhibition or displacement) in series [1] (Table 5) was more than 10000 nM; in series [2] (Table 5) it was more than 10000 nM; in series [3], more than 10 µM; in series [4] (Table 5) it was 891 nM.

`COc1ccc(C)cc1S(=O)(=O)NCCCCCNc1nc(-c2ccn(S(=O)(=O)c3ccccc3)c2)cs1` [Example 80, N1-[5-({4-[1-(Phenylsulfonyl)-1H-3-pyrrolyl]-1,3-thiazol-2-yl}amino)pentyl]-2-methoxy-5-methyl-1-benzenesulfonamide]: the Ki is more than 10000 nM in series [1] (Table 5), more than 10000 nM in series [2] (Table 5), more than 10 µM in series [3] and 40 nM in series [4] (Table 5).

Regarding `O=S(=O)(NCCCCCCNc1nc2c(s1)CCSc1ccccc1-2)c1cccs1` [Example 106], the Ki was more than 10000 nM in series [1] (Table 6), more than 10000 nM in series [2] (Table 6), more than 10 µM in series [3] and 2.9 nM in series [4] (Table 6).

Consider `Cc1cccc(F)c1S(=O)(=O)NC[C@H]1CC[C@H](Nc2nc3c(s2)CCSc2ccccc2-3)CC1` [Example 158, N1-{[4-(4,5-Dihydrobenzo[2,3]thiepino[4,5-d][1,3]thiazol-2-ylamino)cyclohexyl]methyl}-2-fluoro-6-methyl-1-benzenesulfonamide], for which the Ki in series [1] (Table 6) is more than 10000 nM; in series [2] (Table 6), more than 10000 nM; in series [3], more than 10 µM; in series [4] (Table 6), 8.2 nM.

Take `O=S(=O)(NCCCCCNc1nc(-c2ccncc2)cs1)c1ccccc1F` [Example 73, 2-(5-(2-Fluoro)phenylsulfonylamino)pentylamino-4-(4-pyridyl)thiazole hydrogen chloride]: the Ki in series [1] (Table 5) is more than 10000 nM; in series [2] (Table 5), more than 10000 nM; in series [3] it was more than 10 µM; in series [4] (Table 5), 204 nM.

Take `O=S(=O)(NC[C@H]1CC[C@H](Nc2nc3c(s2)CCSc2ccccc2-3)CC1)c1cccc2nsnc12` [Example 118, N4-{[4-(4,5-Dihydrobenzo[2,3]thiepino[4,5-d][1,3]thiazol-2-ylamino)cyclohexyl]methyl}-2,1,3-benzothiadiazole-4-sulfonamide]: the Ki is more than 10000 nM in series [1] (Table 6), more than 10000 nM in series [2] (Table 6), more than 10 µM in series [3] and 2.4 nM in series [4] (Table 6).

Take `O=S(=O)(NC[C@H]1CC[C@H](Nc2nc(-c3cc(-c4ccccc4)no3)cs2)CC1)c1cccc2cccnc12` [Example 81, trans-N8-[(4-{[4-(3-Phenyl-5-isoxazolyl)-1,3-thiazol-2-yl]amino}cyclohexyl)methyl]-8-quinolinesulfonamide]: the Ki was more than 10000 nM in series [1] (Table 5), more than 10000 nM in series [2] (Table 5), more than 10 µM in series [3] and 155 nM in series [4] (Table 5).

With `COc1ccc(C)cc1S(=O)(=O)NCCCCCNc1nc(-c2sc3ccc(Cl)cc3c2C)cs1` [Example 77, N1-(5-{[4-(5-Chloro-3-methylbenzo[b]thiophen-2-yl)-1,3-thiazol-2-yl]amino}pentyl)-2-methoxy-5-methyl-1-benzenesulfonamide], the Ki is more than 10000 nM in series [1] (Table 5), more than 10000 nM in series [2] (Table 5), more than 10 µM in series [3] and 297 nM in series [4] (Table 5).

In the case of `COc1ccc(C)cc1S(=O)(=O)NCCCCCNc1nc2c(s1)CCSc1ccc(F)cc1-2` [Example 160, N1-{5-[(9-Fluoro-4,5-dihydrobenzo[2,3]thiepino[4,5-d][1,3]thiazol-2-yl)amino]pentyl}-2-methoxy-5-methyl-1-benzenesulfonamide], the Ki in series [1] (Table 6) was more than 10000 nM; in series [2] (Table 6), more than 10000 nM; in series [3], more than 10 µM; in series [4] (Table 6), 2.8 nM.

`CN(C)S(=O)(=O)NCCCCCNc1nc(-c2ccsc2)cs1` [Example 82, N,N-Dimethyl-N′-(5-{[4-(3-Thienyl)-1,3-thiazol-2-yl]amino}pentyl)sulfamide]: the inhibition constant (Ki) in series [1] (Table 5) was more than 10000 nM; in series [2] (Table 5), more than 10000 nM; in series [3] it was more than 10 µM; in series [4] (Table 5), 8.3 nM.

Take `COc1ccc(C)cc1S(=O)(=O)NCCCCCNc1nc(-c2cccnc2)cs1` [Example 72, 2-(5-(2-Methoxy-5-methyl)phenylsulfonylamino)pentylamino-4-(3-pyridyl)thiazole hydrogen chloride]: the Ki is more than 10000 nM in series [1] (Table 5), more than 10000 nM in series [2] (Table 5), more than 10 µM in series [3] and 50 nM in series [4] (Table 5).

(Values after patent US7189720B2 (H. Lundbeck A/S, priority 1999, dated 2007).)
